Experimental data taken from patent US6737383B1, “Herbicidal oxadiazolidines” (priority 1999, dated 2004).

Assays:
sugar beet = assay: Test B pre/postemergence sugar beet; assay type: in vivo, Beta vulgaris
How it was run: (§1)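 Test chemicals in a non-phytotoxic solvent mixture with surfactant were sprayed preemergence onto planted seeds and postemergence onto plants 2 to 18 cm tall (1- to 4-leaf stage). After twelve to sixteen days in a greenhouse, injury was visually rated against untreated controls from 0 (no effect) to 10 (complete control).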

giant foxtail = assay: Test B pre/postemergence giant foxtail; assay type: in vivo, Setaria faberii
How it was run: as §1

rice = assay: Test B flood test rice; assay type: in vivo, Oryza sativa
How it was run: (§2)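 Read-out is a visual response score from 0 (no effect) to 10 (complete control), assigned by comparison with untreated controls. Treatment was applied at the 2-leaf stage, and plants stayed in the greenhouse for twelve to sixteen days before scoring.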

morningglory = assay: Test B pre/postemergence morningglory; assay type: in vivo, Ipomoea hederacea
How it was run: as §1

blackgrass = assay: Test B pre/postemergence blackgrass; assay type: in vivo, Alopecurus myosuroides
How it was run: as §1

velvetleaf = assay: Test B pre/postemergence velvetleaf; assay type: in vivo, Abutilon theophrasti
How it was run: as §1

cocklebur = assay: Test B pre/postemergence cocklebur; assay type: in vivo, Xanthium strumarium
How it was run: as §1

wheat = assay: Test B pre/postemergence wheat; assay type: in vivo, Triticum aestivum
How it was run: as §1

rape = assay: Test B pre/postemergence rape; assay type: in vivo, Brassica napus
How it was run: as §1

duck salad = assay: Test B flood test duck salad; assay type: in vivo, Heteranthera limosa
How it was run: as §2

purple nutsedge = assay: Test B pre/postemergence purple nutsedge; assay type: in vivo, Cyperus rotundus
How it was run: as §1

wild oat = assay: Test B pre/postemergence wild oat; assay type: in vivo, Avena fatua
How it was run: as §1

smallflower flatsedge = assay: Test B flood test smallflower flatsedge; assay type: in vivo, Cyperus difformis
How it was run: as §2

pigweed = assay: Test B pre/postemergence pigweed; assay type: in vivo, Amaranthus retroflexus
How it was run: as §1

bamyardgrass = assay: Test B flood test barnyardgrass; assay type: in vivo, Echinochloa crus-galli
How it was run: as §2

soybean = assay: Test B pre/postemergence soybean; assay type: in vivo, Glycine max
How it was run: as §1

[1] = Postemergence, Rate 62 g/ha, scale 0 to 10, 0 is no effect, 10 is complete control
[2] = Postemergence, Rate 125 g/ha, scale of 0 to 10 where 0 is no effect and 10 is complete control
[3] = Postemergence, Rate 250 g/ha, scale of 0 to 10, 0 is no effect, 10 is complete control
[4] = Postemergence, Rate 500 g/ha, scale of 0 to 10 where 0 is no effect and 10 is complete control
[5] = Preemergence, Rate 62 g/ha, scale 0 to 10 (0 no effect, 10 complete control)
[6] = Preemergence, Rate 125 g/ha, scale of 0 to 10 where 0 is no effect and 10 is complete control
[7] = Preemergence, Rate 500 g/ha, scale of 0 to 10 where 0 is no effect and 10 is complete control
[8] = Rate 62 g/ha, flood test species, Pre-emergence, visual evaluation after twelve to sixteen days
[9] = Rate 125 g/ha, under heading Pre-emergence, flood test species, visual evaluation after twelve to sixteen days
[10] = Rate 250 g/ha, Pre-emergence (flood test species), scale 0 to 10, 0 is no effect, 10 is complete control
[11] = Rate 500 g/ha, Pre-emergence section of Table B, 0 to 10 scale (0 no effect, 10 complete control)

With `C#CC(C)n1c(=O)on(C(=O)N(c2ccccc2)C(C)C)c1=O` (stereo not shown) [Compound 609] the “Plant response rating, Sugarbeets” value (sugar beet; [1]) was 0, the “Plant response rating, Sugarbeets” value (sugar beet; [2]) was 0 and the “Sugarbeets plant response rating” value (sugar beet; [3]) was 0. For the same compound, the “Plant response rating, Sugarbeets” value (sugar beet; [4]) was 1, the “Sugarbeets plant response rating” value (sugar beet; [5]) was 0 and the “Sugarbeets plant response rating” value (sugar beet; [6]) was 3. The “Plant response rating, Sugarbeets” value (sugar beet; [7]) was 8, the “Plant response rating, Giant foxtail” value (giant foxtail; [1]) was 6 and the “Plant response rating, Giant foxtail” value (giant foxtail; [2]) was 9. For the same compound, the “Giant foxtail plant response rating” value (giant foxtail; [3]) was 9, the “Plant response rating, Giant foxtail” value (giant foxtail; [4]) was 9 and the “Giant foxtail plant response rating” value (giant foxtail; [5]) was 10. The “Giant foxtail plant response rating” value (giant foxtail; [6]) was 10, the “Plant response rating, Giant foxtail” value (giant foxtail; [7]) was 10 and the “Plant response rating, Rice (0 to 10 scale, 0 is no effect, 10 is complete control)” value (rice; [8]) was 0. The “Rice plant response rating (0 to 10 scale, 0 is no effect, 10 is complete control)” value (rice; [9]) was 0, the “Rice plant response rating” value (rice; [10]) was 0 and the “Rice plant response rating” value (rice; [11]) was 0. The “Plant response rating, Morningglory” value (morningglory; [1]) was 8, the “Plant response rating, Morningglory” value (morningglory; [2]) was 10 and the “Morningglory plant response rating” value (morningglory; [3]) was 10. The “Plant response rating, Morningglory” value (morningglory; [4]) was 10, the “Morningglory plant response rating” value (morningglory; [5]) was 0 and the “Morningglory plant response rating” value (morningglory; [6]) was 0. For the same compound, the “Plant response rating, Morningglory” value (morningglory; [7]) was 5, the “Plant response rating, Blackgrass” value (blackgrass; [1]) was 5 and the “Plant response rating, Blackgrass” value (blackgrass; [2]) was 8. For the same compound, the “Blackgrass plant response rating” value (blackgrass; [3]) was 8, the “Plant response rating, Blackgrass” value (blackgrass; [4]) was 8 and the “Blackgrass plant response rating” value (blackgrass; [5]) was 7. The “Blackgrass plant response rating” value (blackgrass; [6]) was 8, the “Blackgrass plant response rating (0 to 10 scale)” value (blackgrass; Preemergence, Rate 250 g/ha) was 9 and the “Blackgrass plant response rating” value (blackgrass; [7]) was 10. For the same compound, the “Plant response rating, Velvetleaf” value (velvetleaf; [1]) was 3, the “Plant response rating, Velvetleaf” value (velvetleaf; [2]) was 3 and the “Velvetleaf plant response rating” value (velvetleaf; [3]) was 7. The “Plant response rating, Velvetleaf” value (velvetleaf; [4]) was 8, the “Velvetleaf plant response rating” value (velvetleaf; [5]) was 7 and the “Velvetleaf plant response rating” value (velvetleaf; [6]) was 8. For the same compound, the “Plant response rating, Velvetleaf” value (velvetleaf; [7]) was 9, the “Plant response rating, Cocklebur” value (cocklebur; [1]) was 0 and the “Plant response rating, Cocklebur” value (cocklebur; [2]) was 1. For the same compound, the “Cocklebur plant response rating” value (cocklebur; [3]) was 2, the “Plant response rating, Cocklebur” value (cocklebur; [4]) was 3 and the “Cocklebur plant response rating” value (cocklebur; [5]) was 0. The “Cocklebur plant response rating” value (cocklebur; [6]) was 0, the “Cocklebur plant response rating (0 to 10 scale)” value (cocklebur; Preemergence, Rate 250 g/ha) was 0 and the “Plant response rating, Cocklebur” value (cocklebur; [7]) was 3. For the same compound, the “Plant response rating, Wheat” value (wheat; [1]) was 0, the “Plant response rating, Wheat” value (wheat; [2]) was 0 and the “Wheat plant response rating” value (wheat; [3]) was 2. For the same compound, the “Plant response rating, Wheat” value (wheat; [4]) was 6, the “Wheat plant response rating” value (wheat; [5]) was 0 and the “Wheat plant response rating” value (wheat; [6]) was 0. For the same compound, the “Plant response rating, Wheat” value (wheat; [7]) was 6, the “Plant response rating, Rape” value (rape; [1]) was 0 and the “Plant response rating, Rape” value (rape; [2]) was 0. The “Rape plant response rating” value (rape; [3]) was 1, the “Plant response rating, Rape” value (rape; [4]) was 3 and the “Rape plant response rating” value (rape; [5]) was 0. The “Rape plant response rating” value (rape; [6]) was 0, the “Plant response rating, Rape” value (rape; [7]) was 10 and the “Plant response rating, Ducksalad (0 to 10 scale, 0 is no effect, 10 is complete control)” value (duck salad; [8]) was 0. For the same compound, the “Ducksalad plant response rating (0 to 10 scale, 0 is no effect, 10 is complete control)” value (duck salad; [9]) was 0, the “Ducksalad plant response rating” value (duck salad; [10]) was 0 and the “Ducksalad plant response rating” value (duck salad; [11]) was 0. For the same compound, the “Plant response rating, Nutsedge” value (purple nutsedge; [1]) was 0, the “Plant response rating, Nutsedge” value (purple nutsedge; [2]) was 0 and the “Nutsedge plant response rating” value (purple nutsedge; [3]) was 0. For the same compound, the “Plant response rating, Nutsedge” value (purple nutsedge; [4]) was 6, the “Nutsedge plant response rating” value (purple nutsedge; [5]) was 0 and the “Nutsedge plant response rating” value (purple nutsedge; [6]) was 0. For the same compound, the “Plant response rating, Nutsedge” value (purple nutsedge; [7]) was 4, the “Plant response rating, Wild oats” value (wild oat; [1]) was 0 and the “Plant response rating, Wild oats” value (wild oat; [2]) was 0. The “Wild oats plant response rating” value (wild oat; [3]) was 0, the “Plant response rating, Wild oats” value (wild oat; [4]) was 4 and the “Wild oats plant response rating” value (wild oat; [5]) was 3. The “Wild oats plant response rating” value (wild oat; [6]) was 7, the “Plant response rating, Wild oats” value (wild oat; [7]) was 10 and the “Plant response rating, S. Flatsedge (0 to 10 scale, 0 is no effect, 10 is complete control)” value (smallflower flatsedge; [8]) was 0. The “S. Flatsedge plant response rating (0 to 10 scale, 0 is no effect, 10 is complete control)” value (smallflower flatsedge; [9]) was 0, the “S. Flatsedge plant response rating” value (smallflower flatsedge; [10]) was 0 and the “S. Flatsedge plant response rating” value (smallflower flatsedge; [11]) was 0. For the same compound, the “Plant response rating, Redroot pigweed” value (pigweed; [1]) was 0, the “Plant response rating, Redroot pigweed” value (pigweed; [2]) was 0 and the “Redroot pigweed plant response rating” value (pigweed; [3]) was 2. For the same compound, the “Plant response rating, Redroot pigweed” value (pigweed; [4]) was 9, the “Redroot pigweed plant response rating” value (pigweed; [5]) was 8 and the “Plant response rating, Redroot pigweed” value (pigweed; [7]) was 10. The “Plant response rating, Barnyardgrass (0 to 10 scale, 0 is no effect, 10 is complete control)” value (bamyardgrass; [8]) was 0, the “Barnyardgrass plant response rating (0 to 10 scale, 0 is no effect, 10 is complete control)” value (bamyardgrass; [9]) was 0 and the “Barnyardgrass plant response rating” value (bamyardgrass; [10]) was 0. The “Barnyardgrass plant response rating” value (bamyardgrass; [11]) was 0, the “Plant response rating, Soybean” value (soybean; [1]) was 5 and the “Plant response rating, Soybean” value (soybean; [2]) was 6. For the same compound, the “Plant response rating, Soybean” value (soybean; [4]) was 7, the “Soybean plant response rating” value (soybean; [5]) was 4 and the “Soybean plant response rating” value (soybean; [6]) was 6. The “Plant response rating, Soybean” value (soybean; [7]) was 7.
